Paper PMC11854949, “Discovery of Novel Pyridin-2-yl Urea Inhibitors Targeting ASK1 Kinase and Its Binding Mode by Absolute Protein–Ligand Binding Free Energy Calculations” (International Journal of Molecular Sciences, 2025)

Molecular target: T1, recombinant human ASK1 protein (catalytic domain, residues 659–951) (Homo sapiens, UniProt Q99683)
T1 construct: The catalytic domain of ASK1 (encoding residues 659–951) was modified to include an N-terminal 6XHis tag; 6XHis (N); made in house; host or cells: E. coli Rosetta2 (DE3)
T1 sequence (Q99683 659-951): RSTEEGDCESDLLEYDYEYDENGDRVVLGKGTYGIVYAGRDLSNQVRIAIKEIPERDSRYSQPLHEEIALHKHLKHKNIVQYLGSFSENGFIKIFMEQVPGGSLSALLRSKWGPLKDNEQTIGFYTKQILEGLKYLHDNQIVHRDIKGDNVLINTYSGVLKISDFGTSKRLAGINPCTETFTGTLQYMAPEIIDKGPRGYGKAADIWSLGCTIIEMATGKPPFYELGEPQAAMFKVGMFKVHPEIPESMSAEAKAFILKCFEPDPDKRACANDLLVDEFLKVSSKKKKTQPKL
Experiment: ASK1 enzyme inhibition assay (ADP-Glo)
Assay type: biochemical
Settings: for ΔGexp: estimated from IC50 using ΔG = RTln(IC50), 298 K; for IC50: mean ± SEM, n = 3 experiments, 25 μM ATP, 0.1 μg/μL MBP, ADP-Glo
Protocol: The recombinant human ASK1 protein was expressed in E. coli Rosetta2 (DE3) in LB medium, containing 100 µg/mL ampicillin and 34 µg/mL chloramphenicol. A total of 2 mL overnight culture was diluted 100-fold into 200 mL LB and grown at 37 °C with shaking at 200 rpm until the OD600 reached 0.8. Subsequently, 0.5 mM IPTG was added, and protein expression was induced overnight at 20 °C.
The IC50 value for each inhibitor was determined using the ADP-Glo™ protocol. Inhibitors were prepared as a series of 1:1 serial dilutions (final concentration of 10 μM) in 40 mM HEPES buffer (pH 7.5) containing 20 mM MgCl2, 0.1 mg/mL BSA, 50 μM DTT and 5% DMSO.
The reaction was terminated by adding 5 μL of ADP-Glo reagent and incubated at room temperature for 40 min. Then, 10 μL of kinase detection reagent was added, and the mixture was incubated for an additional 30 min. Luminescence was measured using a VICTOR Nivo microplate reader (PerkinElmer, Waltham, MA, USA), and the concentration–response curve and half-maximal inhibitory concentration (IC50) values were obtained by fitting the data using GraphPad Prism (v.9.0) software.

SMILES	ΔGexp	IC50
CC(C)n1cnnc1-c1cccc(NC(=O)N2CCCc3ccccc32)n1 [Compound 6]	-11.64 ± 0.06 kcal/mol	2.92 ± 0.28 nM
CC(C)n1cnnc1-c1cccc(NC(=O)N2CCCC2)n1 [Compound 1]	-7.41 ± 0.01 kcal/mol	3630 ± 72.2 nM
CC(C)n1cnnc1-c1cccc(NC(=O)N2CCc3ccccc3C2)n1 [Compound 7]	-7.21 ± 0.06 kcal/mol	5110 ± 507 nM

Further lines, results first:

ΔGexp	IC50	SMILES
-8.85 ± 0.02 kcal/mol	319 ± 10.9 nM	CC(C)n1cnnc1-c1cccc(NC(=O)N2CCc3cc(C(F)(F)F)ccc32)n1 [Compound 5]
-12.02 ± 0.11 kcal/mol	1.55 ± 0.27 nM	COc1ccc2c(c1)N(C(=O)Nc1cccc(-c3nncn3C(C)C)n1)CC2 [Compound 2]
-8.21 ± 0.01 kcal/mol	954 ± 21.5 nM	CC(C)n1cnnc1-c1cccc(NC(=O)N2CCc3ccc(OC(F)(F)F)cc32)n1 [Compound 3]
-10.01 ± 0.07 kcal/mol	45.3 ± 4.82 nM	COc1ccc2c(c1)CCN2C(=O)Nc1cccc(-c2nncn2C(C)C)n1 [Compound 4]
